Measured values from patent US4962020A, “DNA sequencing” (President and Fellows of Harvard College, priority 1988, dated 1990).
Where two headings read alike, the source gives them in different places.

Tests used:
DNA polymerase = test: ddNTP versus dNTP incorporation (discrimination) in primer extension / sequencing reaction with metal ions; type: biochemical; conditions: for effect of cation on DNA synthesis / sequencing reaction: monovalent and divalent cations tested
Description: In order to determine whether any particular DNA polymerase, in combination with any particular chain terminating agent, or other component of a sequencing reaction mixture, is useful in this invention, a standard sequencing reaction is performed, as described below and shown in the drawings, and the extent of band formation, and the uniformity of nearby bands in a sequencing gel, reviewed. […] Adjacent band uniformity within a two-fold or less range is useful in this invention, preferably the uniformity is within a 1.0-1.5 fold range. Similarly, determination of optimum cation concentration, or of other potential cations useful in the invention, is determined by use of this sequencing reaction under various conditions. For example, cations are tested in ranges from 0.005-100 mM. An example of such an experiment follows:
DNA synthesis is measured using a 17-mer primer of sequence 5'-[…]-3' (New England Biolabs catalog number 1211) that has been labeled with ^32 P at its 5' end and annealed to single-stranded mGPl-2 DNA. Tabor et al., proc. Nat. Acad. Sci. USA 84:4767 (1987) and Tabor et al., J. Biol. Chem. 262:16212 (1987). Any other template is equally useful in this reaction. This primer-template is used in a reaction that contains a DNA polymerase in the presence of a range of concentrations of a metal ion. Reactions are carried out in the presence of a given concentration of all 4 deoxynucleotides (dNTPS, 20-200 μM), and over a range of concentrations of one dideoxynucleotide (ddNTP, in this example, ddGTP from 10-500 μM). The DNA products are then analyzed by polyacrylamide gel electrophoresis, where DNA synthesis is detected as extensions of the primer producing bands, representing extensions of various molecular weights, in the gel.
In a specific example, each reaction mixture (10μl) contained 0.1 μg^32 P-primer-template, 40 mM Tris-HCl pH 7.5, 5 mM dithiothreitol (DTT) 5μM to 20mM metal ion, 10 to 500 μM 4dNTPs, 1 to 500 μM ddNTPs, and 2 units of a DNA polymerase. Incubation was at 37° C. for 15 min. The reaction was stopped by addition of 10μl of 90% formamide, 50 mM EDTA, and 0.1% bromophenol blue.
Electrophoresis was at 2000 volts for 2 hours. The gel was fixed in 50% methanol, 10% acetic acid for 30 min., dried, and exposed, for autoradiography. Band intensity in each lane of the resulting film was determined by scanning each lane with a densitometer. The densitometer used was a double-beam recording instrument, model MkIIIC (Joyce, Loebl & Co., Ltd., Gateshead-on-tyne, II, England). Any suitable densitometer instrument for scanning gels will also work. Alternatively, the uniformity of the resulting bands can be determined by scanning the DNA products as they are electrophoresed within the gel.
The ability to incorporate a given ddNTP compared to the corresponding dNTP for any one enzyme is measured as the ratio of ddNTP to dNTP necessary to allow DNA synthesis that terminates in a fixed range, detected as producing bands of no greater than a fixed molecular weight. That is, the bands produced in the reaction end within a specified range in the sequencing gel. Thus, if one enzyme discriminates 1000-fold greater against a given ddNTP compared to another enzyme, a 1000-fold higher ratio of ddNTP to dNTP will be necessary to obtain bands terminating at the corresponding sites in the same range of the gel.

[1] = target: genetically modified T7 DNA polymerase (ΔLys118-Arg145) (Escherichia phage T7, UniProt P00581, DEL118-145)
Sequence of genetically modified T7 DNA polymerase (ΔLys118-Arg145) (P00581 with tags, fused parts or gaps DEL118-145): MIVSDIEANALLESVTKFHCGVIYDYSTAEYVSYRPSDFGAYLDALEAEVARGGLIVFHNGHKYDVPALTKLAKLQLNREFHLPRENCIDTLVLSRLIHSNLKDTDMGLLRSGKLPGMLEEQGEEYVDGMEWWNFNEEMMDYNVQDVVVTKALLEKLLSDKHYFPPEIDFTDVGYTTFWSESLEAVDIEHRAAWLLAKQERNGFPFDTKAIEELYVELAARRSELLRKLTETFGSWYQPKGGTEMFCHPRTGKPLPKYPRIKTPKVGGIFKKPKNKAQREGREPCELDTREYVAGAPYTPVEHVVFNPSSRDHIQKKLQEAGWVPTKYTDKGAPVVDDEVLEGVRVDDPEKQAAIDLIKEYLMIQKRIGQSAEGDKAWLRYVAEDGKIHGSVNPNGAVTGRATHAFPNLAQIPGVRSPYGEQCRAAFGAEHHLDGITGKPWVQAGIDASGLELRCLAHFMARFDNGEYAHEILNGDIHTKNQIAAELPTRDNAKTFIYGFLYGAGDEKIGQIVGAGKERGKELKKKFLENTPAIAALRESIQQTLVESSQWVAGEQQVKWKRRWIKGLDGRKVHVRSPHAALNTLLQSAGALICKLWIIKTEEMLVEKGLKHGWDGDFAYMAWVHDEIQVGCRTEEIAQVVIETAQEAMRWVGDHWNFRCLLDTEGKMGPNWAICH

[2] = target: T1, genetically modified T7 DNA polymerase (Escherichia phage T7, UniProt P00581, DEL118-145); type: biochemical
T1 construct: made in house; host or cells: E. coli strain K38/pTrx-3/pGP5-8
T1 sequence (P00581 other isoform, or with tags, fused parts or gaps DEL118-145): as the sequence (P00581 with tags, fused parts or gaps DEL118-145) above
T1 sequence (P0AA25 2-109, stated change not applied, further chain): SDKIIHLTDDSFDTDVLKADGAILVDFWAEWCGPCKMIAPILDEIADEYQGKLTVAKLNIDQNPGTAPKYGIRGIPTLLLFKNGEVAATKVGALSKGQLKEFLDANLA

In the case of `[Ba]` [Ba], the “effect of cation on DNA synthesis / sequencing reaction” value (DNA polymerase) is reported as “no detectable effect, or are detrimental to DNA synthesis”.

With `[Be]` [Be] the “effect of cation on DNA synthesis / sequencing reaction” value (DNA polymerase) was “no detectable effect, or are detrimental to DNA synthesis”.

For `[Ca]` [Ca], the “effect of cation on DNA synthesis / sequencing reaction” value (DNA polymerase) was “no detectable effect, or are detrimental to DNA synthesis”.

In the case of `[Ce]` [Ce], the “effect of cation on DNA synthesis / sequencing reaction” value (DNA polymerase) is reported as “no detectable effect, or are detrimental to DNA synthesis”.

With `[Co]` [Co] the “effect of cation on DNA synthesis / sequencing reaction” value (DNA polymerase) was “no detectable effect, or are detrimental to DNA synthesis”.

`[Cr]` [Cr] was tested, and the “effect of cation on DNA synthesis / sequencing reaction” value (DNA polymerase) was “no detectable effect, or are detrimental to DNA synthesis”.

`[Cu]` [Cu] was tested, and the “effect of cation on DNA synthesis / sequencing reaction” value (DNA polymerase) was “no detectable effect, or are detrimental to DNA synthesis”.

`[Na]` [Na] was tested, and the “effect of cation on DNA synthesis / sequencing reaction” value (DNA polymerase) was “no detectable effect, or are detrimental to DNA synthesis”.

With `[Ni]` [Ni] the “effect of cation on DNA synthesis / sequencing reaction” value (DNA polymerase) was “no detectable effect, or are detrimental to DNA synthesis”.

In the case of `[Si]` [Si], the “effect of cation on DNA synthesis / sequencing reaction” value (DNA polymerase) is reported as “no detectable effect, or are detrimental to DNA synthesis”.

`[Zn]` [Zn] was tested, and the “effect of cation on DNA synthesis / sequencing reaction” value (DNA polymerase) was “no detectable effect, or are detrimental to DNA synthesis”.

In the case of `O=c1[nH]cnc2c1ncn2[C@H]1CC[C@@H](COP(=O)(O)OP(=O)(O)OP(=O)(O)O)O1` [ddITP, dideoxy ITP, reference compound], the “discrimination against ddITP compared to ddGTP” value (DNA polymerase; in the presence of Mn) is reported as 10 fold.

With `O=C([O-])CC(C(=O)[O-])C(O)C(=O)[O-].[Na+].[Na+].[Na+]` (stereo not drawn) [isocitrate, sodium isocitrate] the optimal isocitrate concentration [1] was 40 mM, the “effect of isocitrate on polymerase activity” value ([1]; 10 mM magnesium, any amount of isocitrate, FIG. 9) was “inhibitory effect on polymerase” and the “stimulation of polymerase activity” value ([1]; t7 dna polymerase, 0.5 h, 40000 µM, pH 7.5) was 4 fold.

In the case of `[Mg+2]` [magnesium], the “intensity of underlined bases in triplets versus adjacent bases” value ([2]; Example 1 sample run with magnesium in place of manganese) is reported as 2-5 fold, the “variation of nearby band intensity” value ([2]; all four ddNTPs at equal concentration, magnesium, FIG. 6) is reported as “varies greatly” and the “variation of nearby band intensity (peak height)” value ([2]; ddGTP only, magnesium instead of manganese, FIG. 3) is reported as no more than 10 fold. The “optimum ion concentration in a sequencing reaction (polymerase activity)” value ([1]; absence of a chelator, FIG. 8) was 20 mM.

In the case of `[Mn+2]` [manganese], the “difference in band intensity between bases in the triplets TCT, AAG, GCA, CCT” value ([2]; Example 1, manganese in sequencing buffer, densitometer) is reported as “at most 20%”, the “variation of nearby bands and peaks” value ([2]; all four ddNTPs at 0.75 μM each, manganese, FIG. 5) is reported as “no more than 1.5 fold” and the “optimum ion concentration in a sequencing reaction (polymerase activity)” value [1] is reported as 1 mM. It also gave an optimum manganese concentration [1] of 5 to 20 mM.

In the case of “Taq polymerase: DNA polymerase used for sequencing”, the “lessening of the requirement for chain terminating agents (dideoxynucleosides)” value (DNA polymerase; in the presence of manganese or iron ions) is reported as roughly 1000 fold.
